Source: doi:10.1101/2023.02.24.529844v1, “Characterization of new highly selective pyrazolo[4,3-d]pyrimidine inhibitor of CDK7” (biorxiv, 2023)

Key:
CDK9/cyclin T = CDK9/cyclin T (Homo sapiens, UniProt P50750); experiment: biochemical; set-up: radiometric kinase inhibition assay with [gamma-33P]ATP, P-81 phosphocellulose spotting, digital image analysis
Protocol: (§1) The kinase inhibition assay was performed as previously described. Briefly, all tested kinases were incubated with specific substrates in the presence of ATP, 0.05 µCi [γ^33P]ATP and the LGR6768 compound in a final volume of 10 µl. The reaction was stopped by adding 3% aq. H3PO4. Aliquots were spotted onto P-81 phosphocellulose (Whatman), washed three times with 0.5% aq. H3PO4 and air-dried. Kinase inhibition was quantified using a FLA-7000 digital image analyser (Fujifilm). The drug doses required to decrease kinase activities by 50%, represented by the IC50 values, were determined from dose[…]response curves. The selectivity profiling of LGR6768 was performed on a panel of 50 kinases, including known off-targets of other structurally related pyrazolo[4,3-d]pyrimidines or isosteres, such as roscovitine or CR8 [31]. Given the high structural similarity within the CDK family, we also evaluated LGR6768 against 14 CDKs to assess its selectivity across them. The compound was applied at a 1 µM concentration, and the experiment confirmed selective reduction of the enzymatic activity of CDK7 to 4%.

CDK1/cyclin B = CDK1/cyclin B (Homo sapiens, UniProt P06493); experiment: biochemical; set-up: radiometric kinase inhibition assay with [gamma-33P]ATP, P-81 phosphocellulose spotting, digital image analysis
Protocol: as §1

CDK4/cyclin D1 = CDK4/cyclin D1 (Homo sapiens, UniProt P11802); experiment: biochemical; set-up: radiometric kinase inhibition assay with [gamma-33P]ATP, P-81 phosphocellulose spotting, digital image analysis
Protocol: as §1

CDK2/cyclin E = CDK2/cyclin E (Homo sapiens, UniProt P24941); experiment: biochemical; set-up: radiometric kinase inhibition assay with [gamma-33P]ATP, P-81 phosphocellulose spotting, digital image analysis
Protocol: as §1

CDK5/p25 = CDK5/p25 (Homo sapiens, UniProt Q00535); experiment: biochemical; set-up: radiometric kinase inhibition assay with [gamma-33P]ATP, P-81 phosphocellulose spotting, digital image analysis
Protocol: as §1

CDK2/cyclin A = CDK2/cyclin A (Homo sapiens, UniProt P24941); experiment: biochemical; set-up: radiometric kinase inhibition assay with [gamma-33P]ATP, P-81 phosphocellulose spotting, digital image analysis
Protocol: as §1

CDK16 = biological target: T1, CDK16 (Homo sapiens, UniProt Q00536); experiment: Eurofins kinase selectivity panel; format: biochemical; details: read-out: residual activity at 1 μM
T1 construct: Eurofins Discovery kinase panel

CK1δ = biological target: T2, CK1δ (Homo sapiens, UniProt P48730); experiment: Eurofins kinase selectivity panel; format: biochemical; details: read-out: residual activity at 1 μM
T2 construct: gene CSNK1D; Eurofins Discovery kinase panel

CDK7 = biological target: T3, CDK7 (Homo sapiens, UniProt P50613); experiment: [gamma-33P]ATP radiometric kinase assay; format: biochemical
T3 construct: recombinant CDK7; with Cyclin-H
T3 sequence (P50613 2-346): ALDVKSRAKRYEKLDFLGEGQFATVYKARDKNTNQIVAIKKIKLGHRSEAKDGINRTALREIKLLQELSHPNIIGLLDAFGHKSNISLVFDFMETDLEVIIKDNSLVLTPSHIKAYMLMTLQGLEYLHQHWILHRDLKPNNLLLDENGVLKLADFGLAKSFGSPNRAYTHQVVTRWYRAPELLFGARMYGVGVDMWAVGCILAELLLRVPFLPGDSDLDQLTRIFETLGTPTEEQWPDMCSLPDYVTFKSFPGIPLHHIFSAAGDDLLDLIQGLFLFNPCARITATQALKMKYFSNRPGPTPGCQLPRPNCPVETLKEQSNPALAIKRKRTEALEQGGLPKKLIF
T3 sequence (P51946 whole entry partner): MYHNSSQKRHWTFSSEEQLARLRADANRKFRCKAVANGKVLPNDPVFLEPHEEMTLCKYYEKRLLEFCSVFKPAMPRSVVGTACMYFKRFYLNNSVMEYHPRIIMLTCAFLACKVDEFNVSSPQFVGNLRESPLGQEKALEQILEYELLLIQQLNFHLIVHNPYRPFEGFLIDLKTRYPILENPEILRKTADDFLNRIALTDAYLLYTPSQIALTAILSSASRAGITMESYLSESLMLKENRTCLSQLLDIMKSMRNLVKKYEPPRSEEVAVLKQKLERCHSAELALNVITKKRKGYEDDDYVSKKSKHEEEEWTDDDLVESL
T3 sequence (P51948 whole entry partner): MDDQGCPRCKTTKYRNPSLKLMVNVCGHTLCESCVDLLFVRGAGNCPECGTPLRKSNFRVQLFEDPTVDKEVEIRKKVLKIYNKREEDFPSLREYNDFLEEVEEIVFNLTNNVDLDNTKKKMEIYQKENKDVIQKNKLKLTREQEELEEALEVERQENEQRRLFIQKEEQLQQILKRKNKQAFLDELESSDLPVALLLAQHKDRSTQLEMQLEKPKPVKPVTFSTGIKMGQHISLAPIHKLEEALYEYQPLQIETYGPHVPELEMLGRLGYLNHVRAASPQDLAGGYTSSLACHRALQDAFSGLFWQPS

T1 sequence (Q00536 whole entry): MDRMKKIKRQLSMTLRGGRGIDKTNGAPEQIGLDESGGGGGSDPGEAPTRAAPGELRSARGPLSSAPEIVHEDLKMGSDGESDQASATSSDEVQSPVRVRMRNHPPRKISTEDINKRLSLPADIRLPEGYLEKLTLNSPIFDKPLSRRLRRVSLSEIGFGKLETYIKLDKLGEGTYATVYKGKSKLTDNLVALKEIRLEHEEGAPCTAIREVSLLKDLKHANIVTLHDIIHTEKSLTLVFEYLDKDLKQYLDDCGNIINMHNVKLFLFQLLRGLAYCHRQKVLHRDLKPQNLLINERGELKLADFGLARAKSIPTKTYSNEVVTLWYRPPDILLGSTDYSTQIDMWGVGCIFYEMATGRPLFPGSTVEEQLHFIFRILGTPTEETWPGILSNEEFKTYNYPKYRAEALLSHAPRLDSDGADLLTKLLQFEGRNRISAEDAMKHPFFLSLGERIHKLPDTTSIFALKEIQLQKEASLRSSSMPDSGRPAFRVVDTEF
Chain of CDK5/p25 (Q00535 whole entry): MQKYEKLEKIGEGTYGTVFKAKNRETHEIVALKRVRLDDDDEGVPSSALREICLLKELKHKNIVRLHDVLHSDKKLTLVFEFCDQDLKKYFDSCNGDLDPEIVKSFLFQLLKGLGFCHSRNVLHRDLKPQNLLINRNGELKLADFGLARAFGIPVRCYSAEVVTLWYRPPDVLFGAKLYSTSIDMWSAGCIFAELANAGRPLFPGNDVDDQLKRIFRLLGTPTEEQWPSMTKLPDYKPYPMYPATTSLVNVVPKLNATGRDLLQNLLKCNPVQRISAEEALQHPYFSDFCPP
Chain of CDK5/p25 (Q15078 whole entry partner): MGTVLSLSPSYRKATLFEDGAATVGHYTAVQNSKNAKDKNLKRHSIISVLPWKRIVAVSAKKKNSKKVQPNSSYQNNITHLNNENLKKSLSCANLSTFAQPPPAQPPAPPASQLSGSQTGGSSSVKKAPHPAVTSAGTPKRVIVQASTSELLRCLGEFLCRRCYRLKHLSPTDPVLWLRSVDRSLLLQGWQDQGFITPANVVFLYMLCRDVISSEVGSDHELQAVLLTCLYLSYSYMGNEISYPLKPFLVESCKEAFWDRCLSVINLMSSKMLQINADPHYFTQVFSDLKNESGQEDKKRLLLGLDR
Chain of CDK9/cyclin T (P50750 whole entry): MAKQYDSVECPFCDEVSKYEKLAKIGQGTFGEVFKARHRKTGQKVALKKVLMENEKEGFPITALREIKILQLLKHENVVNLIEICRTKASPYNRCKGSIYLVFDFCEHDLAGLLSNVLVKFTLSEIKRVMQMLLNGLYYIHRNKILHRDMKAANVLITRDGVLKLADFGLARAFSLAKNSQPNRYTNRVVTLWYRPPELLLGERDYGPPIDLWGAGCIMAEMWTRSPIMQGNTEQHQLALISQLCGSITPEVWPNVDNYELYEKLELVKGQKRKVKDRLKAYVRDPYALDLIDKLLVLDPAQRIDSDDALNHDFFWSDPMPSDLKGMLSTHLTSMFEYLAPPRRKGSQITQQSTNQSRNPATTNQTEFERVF
Chain of CDK9/cyclin T (O60563 whole entry partner): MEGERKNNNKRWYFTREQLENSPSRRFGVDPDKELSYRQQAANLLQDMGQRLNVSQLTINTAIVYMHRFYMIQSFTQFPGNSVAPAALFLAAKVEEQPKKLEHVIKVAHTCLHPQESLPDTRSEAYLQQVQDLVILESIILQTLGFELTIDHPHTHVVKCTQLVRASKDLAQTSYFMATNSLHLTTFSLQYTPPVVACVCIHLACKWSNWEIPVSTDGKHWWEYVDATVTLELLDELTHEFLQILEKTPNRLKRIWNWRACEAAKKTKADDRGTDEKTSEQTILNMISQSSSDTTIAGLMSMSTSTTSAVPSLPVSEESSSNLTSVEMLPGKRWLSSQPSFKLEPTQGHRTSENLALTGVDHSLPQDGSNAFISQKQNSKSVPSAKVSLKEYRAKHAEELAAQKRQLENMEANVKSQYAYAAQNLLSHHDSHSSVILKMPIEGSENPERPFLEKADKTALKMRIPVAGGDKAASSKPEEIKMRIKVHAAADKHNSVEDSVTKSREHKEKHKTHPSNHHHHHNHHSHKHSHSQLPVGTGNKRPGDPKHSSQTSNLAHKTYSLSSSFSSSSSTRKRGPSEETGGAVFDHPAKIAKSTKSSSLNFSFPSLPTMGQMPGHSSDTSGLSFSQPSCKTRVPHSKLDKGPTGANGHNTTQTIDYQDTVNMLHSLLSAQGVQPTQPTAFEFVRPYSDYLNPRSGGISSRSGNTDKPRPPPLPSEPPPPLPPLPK
Chain of CDK1/cyclin B (P06493 whole entry): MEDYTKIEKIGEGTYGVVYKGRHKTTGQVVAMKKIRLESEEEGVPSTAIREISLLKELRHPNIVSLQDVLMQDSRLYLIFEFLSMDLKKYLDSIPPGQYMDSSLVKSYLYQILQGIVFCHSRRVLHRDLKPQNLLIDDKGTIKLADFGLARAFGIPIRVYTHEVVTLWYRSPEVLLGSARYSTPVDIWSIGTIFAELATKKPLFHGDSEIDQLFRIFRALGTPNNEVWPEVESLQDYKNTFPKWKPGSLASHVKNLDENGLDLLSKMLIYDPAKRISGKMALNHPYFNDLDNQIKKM
Chain of CDK1/cyclin B (P14635 whole entry partner): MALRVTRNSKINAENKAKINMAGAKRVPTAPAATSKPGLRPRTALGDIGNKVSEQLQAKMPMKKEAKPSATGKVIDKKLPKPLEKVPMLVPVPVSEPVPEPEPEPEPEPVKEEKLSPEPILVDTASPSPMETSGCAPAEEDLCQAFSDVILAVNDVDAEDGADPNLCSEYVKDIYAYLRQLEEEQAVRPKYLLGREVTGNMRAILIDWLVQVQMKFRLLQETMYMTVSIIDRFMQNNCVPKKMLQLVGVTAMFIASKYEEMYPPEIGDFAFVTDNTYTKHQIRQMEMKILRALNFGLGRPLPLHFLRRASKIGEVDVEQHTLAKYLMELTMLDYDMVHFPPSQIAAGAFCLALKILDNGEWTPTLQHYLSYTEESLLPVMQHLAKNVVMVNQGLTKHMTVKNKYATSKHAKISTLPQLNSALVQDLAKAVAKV
T2 sequence (P48730 whole entry): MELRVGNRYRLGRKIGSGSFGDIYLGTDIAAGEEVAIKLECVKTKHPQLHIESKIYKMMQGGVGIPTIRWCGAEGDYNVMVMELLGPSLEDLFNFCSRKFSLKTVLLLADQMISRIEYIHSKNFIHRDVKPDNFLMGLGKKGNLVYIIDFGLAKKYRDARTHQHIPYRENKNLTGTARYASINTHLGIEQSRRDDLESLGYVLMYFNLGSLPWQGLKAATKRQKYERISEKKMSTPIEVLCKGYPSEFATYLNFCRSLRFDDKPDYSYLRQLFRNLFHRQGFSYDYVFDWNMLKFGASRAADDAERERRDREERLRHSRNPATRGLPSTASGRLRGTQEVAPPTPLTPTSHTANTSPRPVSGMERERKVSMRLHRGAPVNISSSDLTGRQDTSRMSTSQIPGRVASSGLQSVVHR
Chain of CDK4/cyclin D1 (P11802 whole entry): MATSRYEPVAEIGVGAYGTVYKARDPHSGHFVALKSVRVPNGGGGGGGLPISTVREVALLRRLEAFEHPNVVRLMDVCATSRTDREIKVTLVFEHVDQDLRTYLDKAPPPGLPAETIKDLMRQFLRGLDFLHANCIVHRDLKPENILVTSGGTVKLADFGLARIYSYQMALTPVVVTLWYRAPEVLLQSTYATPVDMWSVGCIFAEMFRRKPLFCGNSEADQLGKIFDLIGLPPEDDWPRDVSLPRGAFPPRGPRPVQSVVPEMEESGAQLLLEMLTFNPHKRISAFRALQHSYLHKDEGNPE
Chain of CDK4/cyclin D1 (P24385 whole entry partner): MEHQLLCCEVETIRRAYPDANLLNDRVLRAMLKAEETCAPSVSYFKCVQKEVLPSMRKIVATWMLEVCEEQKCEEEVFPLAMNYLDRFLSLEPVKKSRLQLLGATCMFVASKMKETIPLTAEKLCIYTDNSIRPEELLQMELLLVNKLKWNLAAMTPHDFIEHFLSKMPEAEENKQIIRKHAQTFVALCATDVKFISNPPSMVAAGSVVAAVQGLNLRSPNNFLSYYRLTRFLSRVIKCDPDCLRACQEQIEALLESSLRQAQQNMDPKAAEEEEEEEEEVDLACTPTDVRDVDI

CC(C)c1n[nH]c2c(NCc3ccccc3-c3ccccc3)nc(SC3CCNCC3)nc12 [compound 4, 5-(piperidin-4-yl)thio-3-isopropyl-7-(2-phenylbenzyl)amino-1(2)H-pyrazolo[4,3-d]pyrimidine]
IC50 (CDK9/cyclin T): 6.55 µM | IC50 (CDK1/cyclin B): 5.14 µM | IC50 (CDK4/cyclin D1): > 20 µM | IC50 (CDK2/cyclin E): 0.25 µM | IC50 (CDK5/p25): 1.12 µM | IC50 (CDK2/cyclin A): 0.5 µM | remaining activity at 1 µM (CDK16): 19% | remaining activity at 1 µM (CK1δ): 19% | IC50 (CDK7): 0.02 µM
